Values joined by “and” are separate entries in the source; they are usually repeats but may differ in a detail not shown here. Equal entries are not always repeated. Where two headings read alike, the source gives them in different places.
How the values were obtained:
[1] = target: T1, farnesyl protein transferase (FPT) (Rattus norvegicus, UniProt Q02293+Q04631); test: In vitro enzyme assay: inhibition of farnesyl protein transferase (transfer of [3H]farnesyl to Ras-CVLS); type: biochemical
T1 construct: were partially purified from rat brain by ammonium sulfate fractionation followed by Q-Sepharose; from tissue; host or cells: rat brain

[2] = tested on: SW620-BAG human colon carcinoma cells expressing an activated K-ras gene; test: Cell Mat Assay, SW620 tumor cells; type: cell-based
[3] = tested on: Ras-CVLL in COS monkey kidney cells; test: COS cell assay: geranylgeranylation of Ras-CVLL (Western blot); type: cell-based
[4] = tested on: Human tumor cells; test: Soft Agar Assay (anchorage-independent growth); type: cell-based; conditions: range over 5 tumor cell lines (K ras NIH 3T3, H ras NIH 3T3, HTB 177, A549, HTB 175), read-out: IC50 for each cell line
[5] = Table 1, partially purified rat brain FPT, Ras-CVLS, read-out: FPT IC50
[6] = Table 2, comparison with GGPT, read-out: ENZYME INHIBITION FPT IC50
[7] = FPT IC50, Table 1, partially purified rat brain FPT, Ras-CVLS
[8] = Homo sapiens, SW-620, Mat assay

| Compound | IC50 [1, 5] | IC50 [1, 6] | IC50 ([2]; Mat assay) | IC50 [1, 7] | IC50 [2, 8] | did not block the geranylgeranylation of Ras-CVLL at concentrations up to [3] | IC50 [4] |
| --- | --- | --- | --- | --- | --- | --- | --- |
| O=C(Cc1cc[n+]([O-])cc1)N1CCN([C@H]2c3ncc(Br)cc3CCc3cc(Cl)cc(Br)c32)CC1 [Example 11A] | 1.8 nM and 2.1 nM | 1.8 nM and 2.1 nM | > 6.25 µM |  |  |  |  |
| O=C(Cc1cc[n+]([O-])cc1)N1CCN([C@@H]2c3ccc(Cl)cc3CCc3cc(Br)cnc32)CC1 [Example 16A] |  |  |  | 32 nM and 26 nM |  |  |  |
| O=C(Cc1cc[n+]([O-])cc1)N1CCC(C2c3ccc(Cl)c(Br)c3CCc3cc(Br)cnc32)CC1 (single isomer, unassigned) [Example 14A] | 2.6 nM | 2.6 nM |  |  | 12.5 µM |  |  |
| O=C(Cc1cc[n+]([O-])cc1)N1CCN([C@H]2c3ccc(Cl)c(Br)c3CCc3cc(Br)cnc32)CC1 [Example 5] | 2.3 nM | 2.3 nM |  |  | 6.25 µM |  |  |
| O=C(Cc1cc[n+]([O-])cc1)N1CCC(=C2c3ccc(Cl)c(Br)c3CCc3cc(Br)cnc32)CC1 [Example 2] | 10 nM and 16 nM | 10 nM and 16 nM |  |  | 6.25 µM | > 33 µM |  |
| O=C(Cc1cc[n+]([O-])cc1)N1CCC(=C2c3ncc(Br)cc3CCc3cc(Cl)cc(Br)c32)CC1 (racemic) [Example 7] | 12 nM | 12 nM |  |  | 6.25 µM |  |  |
| NC(=O)N1CCC(CC(=O)N2CCC(C3c4ncc(Br)cc4CCc4cc(Cl)cc(Cl)c43)CC2)CC1 (single isomer, unassigned) [Example 18] | 3.1 nM | 3.1 nM |  |  |  |  | 175 to 800 nM |
| NC(=O)N1CCC(CC(=O)N2CCC(C3c4ccc(Cl)c(Br)c4CCc4cc(Br)cnc43)CC2)CC1 (single isomer, unassigned) [Example 13] | 5 nM | 5 nM |  |  |  |  |  |
| O=C(Cc1cc[n+]([O-])cc1)N1CCN([C@H]2c3ccc(Cl)cc3CCc3cc(Br)cnc32)CC1 [Example 16B] |  |  |  | 38 nM and 23 nM | 25 µM |  |  |
| O=C(Cc1cc[n+]([O-])cc1)N1CCC([C@H]2c3ncc(Br)cc3CCc3cc(Cl)cc(Br)c32)CC1 [Example 9] | 1.3 nM | 1.3 nM |  |  | 6.25 µM |  |  |

— EP1019392B1, “TRICYCLIC AMIDES USEFUL FOR INHIBITION OF G-PROTEIN FUNCTION AND FOR TREATMENT OF PROLIFERATIVE DISEASES” (SCHERING CORPORATION, priority 1995, dated 1997)
